1 compound from patent US12350273B2, “Treatment of SMA” (Hoffmann-La Roche Inc., priority 2017, dated 2025) can be followed below.

Experiment [1] relates to human iPSCs. As to the kind of experiment: Cell cycle analysis of human iPSCs (flow cytometry). Conditions: 24 h, 30 nM (positive control). The class given is cell-based. The protocol:
(§1) For the analysis of the cell cycle, monkey stem cells were detached with Accutase (Stem Cell Technologies) and plated at 15000 cells/cm2 in 6 well plates coated with Matrigel (BD Biosciences) in MT medium supplemented with 10 ng/ml ActivinA, 15 ng/ml FGF2, and 10 μM Rock inhibitor. Cells were expanded for 1 day and then synchronized by starvation for 7 h in MT medium without supplements FGF2 and ActivinA. Before flow cytometry, cells were incubated for 24 h with fresh MT medium containing supplements FGF2 and ActivinA and test items at 80 nM, 400 nM, and 2000 nM or 30 nM rapamycin as positive control to arrest cells in G1 phase. Human stem cells were detached with Accutase (Stem Cell Technologies) and plated at 40000 cells/cm2 in 6 well plates coated with Matrigel (BD Biosciences) in mTeSR1 supplemented with 10 μM Rock Inhibitor Y-27632 (Sigma-Aldrich). Cells were expanded for 3 days with daily medium change. Since human iPSCs lose their properties during starvation by growth factor withdrawal, stem cells were synchronized with 200 ng/ml Nocodazole (Sigma-Aldrich) for 5 h and washed subsequently 2 times with mTesR1 Medium. Before flow cytometry, cells were incubated for 24 h with fresh TesR1 medium containing test items at 80 nM, 400 nM, and 2000 nM or 30 nM rapamycin as positive control to arrest cells in G1 phase.
(§2) For cell cycle analysis, human iPSCs were washed with PBS, detached with Accutase (Stem Cell Technologies) and collected by centrifugation. Cells were stained for 1 h at 37° C. with 600 ul of 7 AAD/Saponin/RNAse mix ([…] 7 AAD (#559925, BD), 50 μg/ml RNase, and 0.03% Saponin dissolved in FACS buffer (PBS, 5% FBS, 10 mM Hepes)). Cynomolgus monkey iPSCs were washed with PBS, detached with Accutase (Stem Cell Technologies) and collected by centrifugation. Cells were stained for 30 min at 37° C. in 300 ul standard MT medium (with FGF2 and ActivinA) containing 1 ul Vybrant Dye Cycle Violet Stain (#V35003, 1000× stock, Invitrogen) per ml medium. Additionally 2 ul 7 AAD (50 μg/ml 7 AAD) were added without permeabilization to label dead cells; cells were incubated for 10 min at 37° C. Flow cytometry analysis was performed using a Canto II cytometer (BD Biosciences) and data were analysed with the FlowJo software.
(In flow cytometry, cells or beads pass a laser one at a time.)

For experiment [2], the system named is Cynomolgus monkey iPSCs. Briefly: Cell cycle analysis of Cynomolgus monkey iPSCs (flow cytometry). The class given is cell-based. Conditions: Cynomolgus monkey iPSCs, 24 h, 30 nM (positive control). As for the experimental part: as §1, §2

Turning to `CO[C@H]1C[C@@H]2CC[C@@H](C)[C@@](O)(O2)C(=O)C(=O)N2CCCC[C@H]2C(=O)O[C@H]([C@H](C)C[C@@H]2CC[C@@H](O)[C@H](OC)C2)CC(=O)[C@H](C)/C=C(\C)[C@@H](O)[C@@H](OC)C(=O)[C@H](C)C[C@H](C)/C=C/C=C/C=C/1C` [Rapamycin, reference compound], in experiment [1], the “percentage of events in G1 phase, mean” value is reported as 58.3%; the “percentage of events in G2 phase, mean” value is 30.5%; the “percentage of events in S phase, mean” value is reported as 11.2%. Also, in experiment [2], the “percentage of events in G1 phase, mean” value is recorded as 41.7%; the “percentage of events in G2 phase, mean” value came to 45.6%; the “percentage of events in S phase, mean” value is given as 12.7%.
